In one assay the target is T1, Bcl-2-related protein A1 (Homo sapiens, UniProt Q16548).
T1 sequence (Q16548 whole entry): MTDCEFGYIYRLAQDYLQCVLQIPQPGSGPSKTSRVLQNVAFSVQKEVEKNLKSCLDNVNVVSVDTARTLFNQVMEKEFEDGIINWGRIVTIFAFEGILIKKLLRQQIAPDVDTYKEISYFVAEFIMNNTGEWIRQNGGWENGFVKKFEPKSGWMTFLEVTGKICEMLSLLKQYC
The assay can be described thus: inhibitors of Bim binding to Bfl-1, dose response, biochemical, multiplexed, bead-based flow cytometry (AID 1320). Particulars: inactive by the depositor's call; pH 7.4; 4 °C. On the technique in general: A flow cytometer gives signals particle by particle.
`CN1CCN(C2=C(Cl)C(=O)C(c3cnc(N4CCCCC4)s3)=C(Cl)C2=O)CC1` gave an EC50 of 0.01 µM. Same read-out and setting: the figure for `Cc1ccc(-c2ccc(/C=C/C(=O)c3ccccc3)o2)cc1` is 7.03 µM; for `CCN(CC)c1ccc(-c2nn3c(-c4ccccc4OC)nnc3s2)cc1` it is 40.8 µM. Same read-out and setting: next, `CCN(CC)c1ccc(-c2nn3c(-c4n[nH]c5c4CCC5)nnc3s2)cc1`: 28.6 µM; `CN(C)c1ncc(C2=C(Cl)C(=O)C(N3CCCC3)=C(Cl)C2=O)s1`: 0.04 µM; `O=C(/C=C/c1ccc(-c2ccccc2[N+](=O)[O-])o1)c1ccccc1`: 2.61 µM. On the same count and under the same terms, next, `c1ccc(C2=Nc3cccc4cccc(c34)N2)cc1`: 26.2 µM. Take `CCN(CC)c1ccc(NC(=O)c2ccccc2Br)cc1S(=O)(=O)Nc1ccccc1OC`: it took 5.4 µM to reach a half-maximal effect (EC50).

As to `Cc1ccc(/C=C2/NC(=O)N(Cc3ccc(Br)cc3)C2=O)o1`, the midpoint of the response, the EC50, lay at 5.22 µM.

`CCOC(=O)c1c(NC(C)=O)sc2c(O)c(Br)cc(Br)c12` had an EC50 of 17.8 µM. Still for that read-out and setting: the figure for `COc1ccc(N2C(=O)C(=Cc3cccs3)NC2=S)cc1` is 3.86 µM; for `O=C1CSc2ccc(C(=O)Nc3cccc(S(=O)(=O)Nc4ccc(Br)cc4)c3)cc2N1` it is 5.81 µM; for `CCOc1ccc(-n2cc(-c3ccc(OC)c(OC)c3)[nH]c2=S)cc1` it is 0.68 µM. Same read-out and setting: the figure for `CCOC(=O)c1ccc(/N=c2/ssnc2Cl)cc1` is 37.5 µM; for `Cc1ccc(-c2nc3c(c(=O)[nH]c(=O)n3Cc3ccccc3)n2Cc2ccccc2)o1` it is 8.43 µM; for `CC1N(C)c2cccc3cccc(c23)N1C` [1,2,3-trimethyl-2,3-dihydro-1H-perimidine] it is 2.46 µM.

For the compound `Cc1c(/N=C2\C=CC(=O)c3ccccc32)c(=O)n(-c2ccccc2)n1C` [1,5-dimethyl-4-[(4-oxo-1-naphthalenylidene)amino]-2-phenyl-3-pyrazolone], a half-maximal response (EC50) required 53.5 µM.

Regarding `Cc1ccc(O)c(NC2=C(Cl)C(=O)N(Cc3ccccc3)C2=O)c1` [1-benzyl-3-chloro-4-(2-hydroxy-5-methylanilino)pyrrole-2,5-dione], the concentration for a half-maximal effect (EC50) was found to be 13.8 µM. For `Cc1ccc(C(=O)/C=C/c2ccc(-c3ccc(C)cc3)o2)cc1` [1-p-Tolyl-3-(5-p-tolyl-furan-2-yl)-propenone], the response was half-maximal at 3.23 µM (EC50). Still for that read-out and setting: the figure for `COc1ccc(/C=C(/C(=O)c2cccs2)N2C=CC=CC2=C(C#N)C#N)cc1` [2-[1-[(Z)-1-(4-methoxyphenyl)-3-oxidanylidene-3-thiophen-2-yl-prop-1-en-2-yl]pyridin-2-ylidene]propanedinitrile] is 2.23 µM. Still for that read-out and setting: the figure for `Cc1ccc(-c2cc(-c3ccc(Cl)cc3)c(C#N)c(N)n2)o1` [2-azanyl-4-(4-chlorophenyl)-6-(5-methylfuran-2-yl)pyridine-3-carbonitrile] is 2.65 µM; for `Cc1ccc(/C=C/C(=O)c2ccccc(=O)c2O)c(C)c1` [3-[3-(2,4-dimethylphenyl)acryloyl]-2-hydroxy-2,4,6-cycloheptatrien-1-one] it is 51.1 µM. On the same count and under the same terms, the figure for `N#Cc1cccc(/N=c2/ssnc2Cl)c1` [3-[(4-chloro-5-dithiazolylidene)amino]benzonitrile] is 14.5 µM.

The assay is the same for the next values; noted with them: pH 7.4; 4 °C.
Take `CN1CCc2cccc3c2[C@@H]1Cc1ccc(O)c(O)c1-3`: the EC50 stood at 15.1 µM. That is a double-digit micromolar value.

Consider `O=C(Nc1ccc2nc(-c3ccco3)c(-c3ccco3)nc2c1)N1CCCCCC1`, for which the EC50 came to 0.92 µM. Compound `CCN1C(=O)/C(=C/C=C2\C=CN(CC)c3ccccc32)SC1=S` had an EC50 of 3.6 µM. Still for that read-out and setting: next, `CCC(/C=C1\Sc2ccc(OC)cc2N1CCO)=C\c1sc2ccc(OC)cc2[n+]1CCO`: 20.3 µM; `N#Cc1cc(-c2ccccc2)nn1-c1ccccc1`: 2.02 µM.

Take `Cc1ccc(-c2cc(-c3ccc(F)cc3)c(C#N)c(N)n2)o1`: the EC50 was found to be 5.2 µM.

Turning to `Cc1c(N=C2C(=O)N(c3ccccc3Cl)C(=O)C2Cl)c(=O)n(-c2ccccc2)n1C` (stereo not drawn), a half-maximal effect (EC50) was put at 6.04 µM. On the same count and under the same terms, next, `CCN=c1scc(C)n1N=Cc1ccc(O)c(O)c1O`: 19.6 µM; `Cc1cccc(N2C(=S)C(C#N)C(=O)NC2c2cccs2)c1` (stereo not drawn): 18.3 µM; `O=C1C(Cl)=C(N2CCN(c3ccccc3[N+](=O)[O-])CC2)C(=O)c2ccccc21`: 0.36 µM. The same measure, in the same setting: the figure for `c1ccc(-c2nc(N3CCOCC3)[s+]n2-c2ccccc2)cc1` is 0.05 µM; for `Cc1ccc(C)c(/C=C/C(=O)c2ccccc(=O)c2O)c1` it is 8.74 µM; for `O=C(NC1=C(Nc2ccc(Cl)cc2)C(=O)c2ccccc2C1=O)c1ccccc1` it is 2.91 µM. The same measure, in the same setting: next, `CCN(CC)S(=O)(=O)c1cccc(C(=O)NN=Cc2ccc(O)c(O)c2O)c1`: 6.41 µM; `O=C(Nc1ccc2nc(-c3ccco3)c(-c3ccco3)nc2c1)N1CCN(c2ccccn2)CC1`: 5.94 µM. In the case of `O=C(c1ccccc1)c1ccc2nc(-c3ccco3)c(-c3ccco3)nc2c1`, the EC50 stood at 9.94 µM. This EC50 is about 1.7-fold higher than that of the compound before. Same read-out and setting: the figure for `CCOc1ccccc1CNc1ccc(O)cc1` is 1.13 µM; for `CCN1/C(=C/c2ccc3cc(C)ccc3[n+]2CC)Sc2cc(C)c(C)cc21` it is 16.9 µM; for `COc1ccc(-n2cc(-c3ccc(OC)c(OC)c3)[nH]c2=S)cc1` it is 1.58 µM. `O=c1[nH]c(O)c(Cc2ccc(-c3cc(Cl)ccc3[N+](=O)[O-])o2)c(=O)[nH]1` registered an EC50 of 1.24 µM. The EC50 values of the last two compounds are within 1.5-fold of each other. With `O=C(NCCCO)Nc1ccc2nc(-c3ccco3)c(-c3ccco3)nc2c1` [1-[2,3-bis(2-furanyl)-6-quinoxalinyl]-3-(3-hydroxypropyl)urea], the EC50 was 1.25 µM. Take `O=C(NCc1ccccc1)c1ccc2nc(-c3ccco3)c(-c3ccco3)nc2c1` [2,3-bis(furan-2-yl)-N-(phenylmethyl)quinoxaline-6-carboxamide]: the EC50 stood at 3.06 µM. On to `COc1ccc2nc(-c3ccco3)c(-c3ccco3)nc2c1` [2,3-di-2-furyl-6-methoxyquinoxaline], for which the midpoint of the response, the EC50, lay at 4.93 µM. In the case of `O=C(NCc1ccccn1)c1ccc2nc(-c3ccco3)c(-c3ccco3)nc2c1` [2,3-di-2-furyl-N-(pyridin-2-ylmethyl)quinoxaline-6-carboxamide], the midpoint of the response, the EC50, lay at 3.66 µM. The EC50 values of the last two compounds are within 1.5-fold of each other. Same read-out and setting: next, `O=C(Nc1ccccc1)c1ccc2nc(-c3ccco3)c(-c3ccco3)nc2c1` [2,3-di-2-furyl-N-phenyl-6-quinoxalinecarboxamide]: 7.56 µM; `Cc1cccc(NC2=NC(=O)C(=CC=Cc3ccco3)S2)c1C` [2-(2,3-Dimethyl-phenylamino)-5-[(E)-3-furan-2-yl-prop-2-en-(Z)-ylidene]-thiazol-4-one]: 3.17 µM; `c1coc(C2=Nc3cccc4cccc(c34)N2)c1` [2-(2-furanyl)-1H-perimidine]: 6.32 µM. Same read-out and setting: next, `Cc1cc(C)c(S(=O)(=O)N=C2C=C(SCC(=O)O)C(=O)c3ccccc32)cc1C` [2-[1-oxidanylidene-4-(2,4,5-trimethylphenyl)sulfonylimino-naphthalen-2-yl]sulfanylethanoic acid]: 8.24 µM; `COc1cc(CNc2ccc3[nH]c(=O)[nH]c3c2)cc(Br)c1OCC(=O)NC(C)(C)C` [2-[2-bromo-6-methoxy-4-[[(2-oxo-1,3-dihydrobenzimidazol-5-yl)amino]methyl]phenoxy]-N-tert-butylacetamide]: 0.87 µM; `Cc1ccc(/C=C/C2=Cc3c(sc(NC(=O)CSc4nnc(N)[nH]4)c3C#N)C(C)(C)C2)o1` [2-[(5-azanyl-1H-1,2,4-triazol-3-yl)sulfanyl]-N-[3-cyano-7,7-dimethyl-5-[(E)-2-(5-methylfuran-2-yl)ethenyl]-6H-1-benzothiophen-2-yl]ethanamide]: 4.19 µM. `Cc1nnc(Sc2cc(NCCO)c([N+](=O)[O-])c3nonc23)s1` [2-[[7-[(5-methyl-1,3,4-thiadiazol-2-yl)thio]-4-nitro-2,1,3-benzoxadiazol-5-yl]amino]ethanol] gave a concentration for a half-maximal effect (EC50) of 0.52 µM. Against the preceding compound, the EC50 is about 8.1-fold lower. Same read-out and setting: next, `CCOC(=O)CSC1=NC(=O)/C(=C/c2ccc(OC)cc2)S1` [2-[[(5Z)-5-[(4-methoxyphenyl)methylidene]-4-oxo-2-thiazolyl]thio]acetic acid ethyl ester]: 1.12 µM; `Cc1ccc(-c2cc(-c3ccc(C)o3)nc(N)c2C#N)cc1` [2-amino-6-(5-methylfuran-2-yl)-4-(4-methylphenyl)pyridine-3-carbonitrile]: 2.25 µM; `Cc1cc(-c2cc(-c3ccc(Cl)cc3)nc(N)c2C#N)co1` [2-azanyl-6-(4-chlorophenyl)-4-(5-methylfuran-3-yl)pyridine-3-carbonitrile]: 3.86 µM.

`CCN(CC)c1ccc(NC2=C(Cl)C(=O)c3ccccc3C2=O)cc1` [2-chloro-3-{[4-(diethylamino)phenyl]amino}naphthoquinone] came in with an EC50 of 0.18 µM. The same measure, in the same setting: the figure for `CC(=O)OCCNc1cc(Sc2nc3ccccc3[nH]2)c2nonc2c1[N+](=O)[O-]` [2-{[7-(1H-benzimidazol-2-ylthio)-4-nitro-2,1,3-benzoxadiazol-5-yl]amino}ethyl acetate] is 5.6 µM. Still for that read-out and setting: next, `O=C(/C=C/c1ccccc1Cl)c1ccccc(=O)c1O` [3-[(E)-3-(2-chlorophenyl)prop-2-enoyl]-2-oxidanyl-cyclohepta-2,4,6-trien-1-one]: 9.01 µM. On the same count and under the same terms, the figure for `O=C(c1ccccc1)c1[nH]n(-c2ccccc2)c2c(O)n(-c3ccccc3)c(=O)c1-2` [3-benzoyl-1,5-diphenyl-3a,6a-dihydropyrrolo[3,4-c]pyrazole-4,6-dione] is 1.36 µM. The compound `COc1ccc(N2C(=O)C(=Nc3c(C)n(C)n(-c4ccccc4)c3=O)C(Cl)C2=O)cc1` (stereo not drawn) [3-chloranyl-4-[(1,5-dimethyl-3-oxidanylidene-2-phenyl-pyrazol-4-yl)amino]-1-(4-methoxyphenyl)pyrrole-2,5-dione] gave an EC50 of 12 µM. For `Cc1c(N=C2C(=O)N(c3ccccc3)C(=O)C2Cl)c(=O)n(-c2ccccc2)n1C` (stereo not drawn) [3-chloranyl-4-[(1,5-dimethyl-3-oxidanylidene-2-phenyl-pyrazol-4-yl)amino]-1-phenyl-pyrrole-2,5-dione], the EC50 was determined as 15.4 µM. This EC50 and that of the compound before are within 1.5-fold of each other.

What is called EC50 is the midpoint of the concentration-response curve. A low value points to greater potency.

Source of the values: BindingDB's records for doi:10.7270/Q2CN728N (Nmmlsc, 2008).
